Reference: the supplement of paper PMC11619387
Values after ≈ are worked out from the molar mass of the structure shown.

Legend:
[1] = tested on: Pseudomonas aeruginosa PAO1-Xen41; assay: Hill coefficient of concentration-effect curve (unitless); higher = steeper concentration-effect curve
Description: (§1)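 Time-kill assays of bioluminescent P. aeruginosa PAO1-Xen41 (start ~5e6 CFU/mL) in 96-well plates at 37 °C, 150 rpm. Luminescence was read hourly for 20 h in cation-adjusted Mueller-Hinton broth, either non-conditioned (MH broth with or without supplements) or conditioned by one of 13 CF-associated species, then filter-sterilised and nutrient-replenished. Growth/kill rates came from log-linear regression of the exponential phase at 9-10 antibiotic concentrations, and Hill (Emax) models were fitted with drc for each replicate.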

[2] = tested on: Pseudomonas aeruginosa PAO1-Xen41; assay: Emax, maximal drug effect on net growth rate (fitted lower asymptote) (per hour (slope of log luminescence)); higher = weaker maximal killing (less negative)
Description: as §1

[3] = tested on: Pseudomonas aeruginosa PAO1-Xen41; assay: EC50 of growth/kill rate concentration-effect curve
Description: as §1

C[C@H]1[C@H](NC(=O)/C(=N\OC(C)(C)C(=O)O)c2csc(N)n2)C(=O)N1S(=O)(=O)O [aztreonam]
Settings | EC50, [3] [µg/mL] | Emax, [2] | Hill coefficient, [1]
medium (conditioned by secondary species or non-conditioned control): A. baumannii | 4.5 (≈ 10.3 µM) | -0.0894 | 6.71
medium (conditioned by secondary species or non-conditioned control): A. fumigatus | 5.15 (≈ 11.8 µM) | -0.0521 | 5.79
medium (conditioned by secondary species or non-conditioned control): A. xylosoxidans | 4.96 (≈ 11.4 µM) | -0.0816 | 6.69
medium (conditioned by secondary species or non-conditioned control): B. cepacia | 4.4 (≈ 10.1 µM) | -0.108 | 7.76
medium (conditioned by secondary species or non-conditioned control): C. albicans | 6.25 (≈ 14.4 µM) | -0.0614 | 3.57
medium (conditioned by secondary species or non-conditioned control): H. influenzae | 5.7 (≈ 13.1 µM) | -0.196 | 1.98
medium (conditioned by secondary species or non-conditioned control): M. abcessus | 4.66 (≈ 10.7 µM) | -0.0657 | 6.22
medium (conditioned by secondary species or non-conditioned control): M. avium | 4.58 (≈ 10.5 µM) | -0.0782 | 6.26
medium (conditioned by secondary species or non-conditioned control): M. catarrhalis | 5.07 (≈ 11.6 µM) | -0.16 | 4.2
medium (conditioned by secondary species or non-conditioned control): MH broth | 4.48 (≈ 10.3 µM) | -0.0757 | 7.92
medium (conditioned by secondary species or non-conditioned control): MH broth + ADC | 4.55 | -0.0421 | 5.14
medium (conditioned by secondary species or non-conditioned control): MH broth + LHB + NAD | 4.7 | -0.148 | 3.43
medium (conditioned by secondary species or non-conditioned control): MH broth + glucose | 5.04 | -0.0548 | 4.64
medium (conditioned by secondary species or non-conditioned control): R. mannitolilytica | 4.356 (≈ 10 µM) | -0.0751 | 7.94
medium (conditioned by secondary species or non-conditioned control): S. aureus | 4.88 (≈ 11.2 µM) | -0.072 | 4.66
medium (conditioned by secondary species or non-conditioned control): S. maltophilia | 4.32 (≈ 9.92 µM) | -0.114 | 3.3
medium (conditioned by secondary species or non-conditioned control): S. pneumoniae | 5.6 (≈ 12.9 µM) | -0.138 | 3.85

CC(C)(O/N=C(\C(=O)N[C@@H]1C(=O)N2C(C(=O)[O-])=C(C[n+]3ccccc3)CS[C@H]12)c1csc(N)n1)C(=O)O [ceftazidime]
Settings | EC50, [3] [µg/mL] | Emax, [2] | Hill coefficient, [1]
medium (conditioned by secondary species or non-conditioned control): A. baumannii | 1.62 (≈ 2.96 µM) | -0.122 | 2.12
medium (conditioned by secondary species or non-conditioned control): A. fumigatus | 2.05 (≈ 3.75 µM) | -0.109 | 3.33
medium (conditioned by secondary species or non-conditioned control): A. xylosoxidans | 1.6 (≈ 2.92 µM) | -0.132 | 2.19
medium (conditioned by secondary species or non-conditioned control): B. cepacia | 1.15 (≈ 2.11 µM) | -0.138 | 2.53
medium (conditioned by secondary species or non-conditioned control): C. albicans | 2.02 (≈ 3.69 µM) | -0.126 | 3.16
medium (conditioned by secondary species or non-conditioned control): H. influenzae | 1.86 (≈ 3.41 µM) | -0.223 | 2.268
medium (conditioned by secondary species or non-conditioned control): M. abcessus | 1.17 (≈ 2.15 µM) | -0.0538 | 3.08
medium (conditioned by secondary species or non-conditioned control): M. avium | 1.19 (≈ 2.19 µM) | -0.0876 | 3.59
medium (conditioned by secondary species or non-conditioned control): M. catarrhalis | 1.12 (≈ 2.05 µM) | -0.166 | 3.76
medium (conditioned by secondary species or non-conditioned control): MH broth | 1.28 (≈ 2.33 µM) | -0.0573 | 3
medium (conditioned by secondary species or non-conditioned control): MH broth + ADC | 1.27 | -0.0561 | 3.55
medium (conditioned by secondary species or non-conditioned control): MH broth + LHB + NAD | 0.743 | -0.133 | 5.89
medium (conditioned by secondary species or non-conditioned control): MH broth + glucose | 1.71 | -0.0864 | 2.61
medium (conditioned by secondary species or non-conditioned control): R. mannitolilytica | 1.067 (≈ 1.95 µM) | -0.0734 | 3.02
medium (conditioned by secondary species or non-conditioned control): S. aureus | 1.12 (≈ 2.05 µM) | -0.069 | 3.04
medium (conditioned by secondary species or non-conditioned control): S. maltophilia | 0.702 (≈ 1.28 µM) | -0.139 | 3.32
medium (conditioned by secondary species or non-conditioned control): S. pneumoniae | 1.71 (≈ 3.12 µM) | -0.159 | 3.31

O=C(O)c1cn(C2CC2)c2cc(N3CCNCC3)c(F)cc2c1=O [ciprofloxacin]
Settings | EC50, [3] [µg/mL] | Emax, [2] | Hill coefficient, [1]
medium (conditioned by secondary species or non-conditioned control): A. baumannii | 0.0737 (≈ 0.222 µM) | -0.126 | 4.99
medium (conditioned by secondary species or non-conditioned control): A. fumigatus | 0.08478 (≈ 0.256 µM) | -0.125 | 6.73
medium (conditioned by secondary species or non-conditioned control): A. xylosoxidans | 0.0394 (≈ 0.119 µM) | -0.0897 | 5.96
medium (conditioned by secondary species or non-conditioned control): B. cepacia | – | -0.0915 | 3.61
medium (conditioned by secondary species or non-conditioned control): C. albicans | 0.08689 (≈ 0.262 µM) | -0.0975 | 6.2
medium (conditioned by secondary species or non-conditioned control): H. influenzae | 0.0686 (≈ 0.207 µM) | -0.124 | 4.89
medium (conditioned by secondary species or non-conditioned control): M. abcessus | 0.046 (≈ 0.139 µM) | -0.124 | 4.82
medium (conditioned by secondary species or non-conditioned control): M. avium | 0.0646 (≈ 0.195 µM) | -0.0922 | 3.72
medium (conditioned by secondary species or non-conditioned control): M. catarrhalis | 0.0542 (≈ 0.164 µM) | -0.0659 | 1.71
medium (conditioned by secondary species or non-conditioned control): MH broth | 0.0844 (≈ 0.255 µM) | -0.125 | 6.8
medium (conditioned by secondary species or non-conditioned control): MH broth + ADC | 0.0577 | -0.11 | 3.02
medium (conditioned by secondary species or non-conditioned control): MH broth + LHB + NAD | 0.0388 | -0.106 | 4.99
medium (conditioned by secondary species or non-conditioned control): MH broth + glucose | 0.0437 | -0.101 | 5.64
medium (conditioned by secondary species or non-conditioned control): R. mannitolilytica | 0.0451 (≈ 0.136 µM) | -0.0966 | 4.94
medium (conditioned by secondary species or non-conditioned control): S. aureus | 0.0434 (≈ 0.131 µM) | -0.0957 | 5.13
medium (conditioned by secondary species or non-conditioned control): S. maltophilia | 0.0279 (≈ 0.0843 µM) | -0.0883 | 3.59
medium (conditioned by secondary species or non-conditioned control): S. pneumoniae | 0.0738 (≈ 0.223 µM) | -0.117 | 4.27
